Assay results taken from patent US6531512B1, “Method of treating cancer in patients having a deficiency in p53 tumor suppressor gene” (Health Research Inc., priority 1998, dated 2003).
Entries after “also recorded” stand apart in the source; their conditions may differ.

Columns and labels:
[1] = tested on: MALME-3M human melanoma cells; experiment: Polyamine pools in MALME-3M cells; type: cell-based; details: MALME-3M (wt-p53), 10 μM, Table 2 (24 hours treatment)
Protocol: (§1) MALME-3M human melanoma cells were cultured as described in Example 1 and treated with 10 μM DENSPM or 10 μM spermine (SPM) as described in Example 4. SK-MEL-28 cells were also cultured as described in Example 1 and treated with 10 μM DENSPM as describe in Example 4. Untreated cells were used as a control.
(§2) After treatment with DENSPM or spermine, biochemical parameters including polyamine enzymes activity, polyamine pools and analog accumulation were monitored as described by Kramer et al, J. Biol. Chem., 270:2124-32 (1995) and Kramer et al., Cancer Res., 57:5521-5527 (1997). Polyamine enzyme activity was monitored for ornithine […] (ODC); S-adenosylmethionine decarboxylase (SAMDC); and spermidine/spermine N^1-acetyltransferase (SSAT). Polyamine pools was monitored for putrescine (Put); spermidine (Spd); and spermine (Spm).

[2] = tested on: mRNA for p53 and p21; experiment: Northern blot of p53 and p21 mRNA in MALME-3M cells; type: cell-based, human; details: asynchronous, 10 μM
Protocol: Asynchronously growing MALME-3M cells were treated for 0 to 48 hours with 10 μM DENSPM as described in Example 2. Northern blots were used to detect mRNA for p53 and p21. The Northern blot procedure is described by Fogel-Petrovic et al. in Molec. Pharn, 52:69-74 (1997); and Biochemistry, 35:14436-14444 (1996). cDNA probes used in Nothern blot hybridization of p21 and p53 mRNA were obtained, respectively, from Dr. Bert Vogelstein (Johns Hopkins Oncology Center, Baltimore, Md.; El-Deiry et al., Cell, 75:817-825) and from Dr. Stephen Friend (Seattle, Wash.; Ishioka et al., Oncogene 10:1485-1492 (1995)). The relative increase in mRNA with analog treatment was normalized to the […] (GAPDH) signal to account for lane loading differences.

[3] = tested on: ornithine decarboxylate (ODC); experiment: Polyamine enzyme activity in treated melanoma cells: ODC; type: cell-based, human; details: for ODC activity: 10 μM
Protocol: as §1, §2
(§3) Enzyme activity and polyamine pools were measured as described in Example 5.

[4] = tested on: SK-MEL-28 human melanoma cells; experiment: Cell growth / apoptotic response of SK-MEL-28 cells (Coulter Counter, growth kinetics); type: cell-based
Protocol: MALME-3M human melanoma cells containing wt-p53 (American Tissue Type Culture Collection, Bethesda, Md.) and human SK-MEL-28 cells containing mt-p53 (American Tissue Type Culture Collection, Bethesda, Md.) were cultured as a monolayer in RPMI 1640 medium containing 10% Nu-Serum (Collaborative Research Products, Bedford, Mass.), 1 mM aminoguanidine, penicillin (50 units/ml) and streptomycin (50 μg/ml) as described by Kramer et al, J. Biol. Chem., 270:2124-32 (1995) and Kramer et al., Cancer Res., 57:5521-5527 (1997).
MALME-3M cells were cultured as described in Example 1. The cells were seeded by adding 1×10^5 cells to a T-25 vented cell culture flask. After 24 hours, the asynchronous cell cultures were treated with 10 μM N^1, N^11-diethylnorspermine (DENSPM) prepared by dissolving DENSPM in distilled water and sterilizing the solution by filtration through a 0.22 micron Millipore membrane. The cells were treated by continuous exposure to DENSPM for 6 days (i.e., the polyamine was added to the cell culture at T=0 and the culture was incubated for the desired amount of time). The number of viable MALME-3M cells were monitored electronically using a Model ZM Coulter Counter (Coulter Electronics, Hialeah, Fla.). Untreated MALME-3M cell cultures were used as controls.
MALME-3M human melanoma cells were cultured as described in Example 1 and treated continuously with 10 μM DENSPM or 10 μM spermine (SPM) for 48 hours. SK-MEL-28 cells were also cultured as described in Example 1 and treated with 10 μM DENSPM for 24 hours. Untreated cells were used as a control.
The effect of DENSPM and spermine on cell growth was monitored using a Coulter Counter (see Example 2). The effect on cell cycle was monitored by flow cytometry as described in Example 3. […]

[5] = tested on: MALME-3M human melanoma cells; experiment: Cell cycle distribution of MALME-3M cells by flow cytometry; type: cell-based
Protocol: MALME-3M cells were cultured as described in Example 1 and treated with 10 μM DENSPM as described in Example 2. Cell cycle arrest was monitored using a FACScan flow cytometry unit (Becton Dickinson, San Jose, Calif.) according to the method of Krishan (1975) J. Cell Biol. 66:[…]. Untreated MALME-3M cell cultures were used as controls.
Cell cycle arrest of serum synchronized MALME-3M cells was also monitored using flow cytometry. MALME-3M cells were synchronized in G0/G1 by replacing cell culture media containing 10% NuSerum (see Example 1) with media lacking NuSerum and incubating the cultures for 120 hours. The synchronized cells were released by the addition of 10% NuSerum (control culture) or 10% NuSerum plus 10 μM DENSPM. The cells were then grown continuously in the presence of serum (control) or DENSPM for up to 96 hours. The untreated cells (control) re-established an asynchronous profile (i.e., progressed through the cell cycle) by 60 hours.
The effect of DENSPM and spermine on cell growth was monitored using a Coulter Counter (see Example 2). The effect on cell cycle was monitored by flow cytometry as described in Example 3.

[6] = tested on: SK-MEL-28 human melanoma cells; experiment: Polyamine pools and analog accumulation in SK-MEL-28 cells; type: cell-based
Protocol: as §1, §2, §3

[7] = tested on: spermidine/spermine N^1-acetyltransferase (SSAT); experiment: Polyamine enzyme activity in treated melanoma cells: SSAT induction; type: cell-based, human; details: SK-MEL-28 cells, 24 hours
Protocol: as §1, §2, §3

[8] = tested on: S-adenosylmethionine decarboxylase (SAMDC); experiment: Polyamine enzyme activity in treated melanoma cells: SAMDC; type: cell-based, human; details: 10 μM
Protocol: as §1, §2

[9] = MALME-3M (wt-p53), Table 2 (24 hours treatment)
[10] = SK-MEL-28 (mt-p53), Table 2, 24 hours
[11] = SK-MEL-28 cells, 24 hours, Table 4
[12] = SK-MEL-28 (mt-p53), 10 μM, Table 2, 24 hours

CCNCCCNCCCNCCCNCC [DENSPM, N^1,N^11-diethylnorspermine]
Polyamine Pools, Put [1]: 205 pmol/10^6 cells | Polyamine Pools, Spd [1]: 60 pmol/10^6 cells | Polyamine Pools, Spm [1]: 285 pmol/10^6 cells | start of p21 mRNA increase [2]: 12 h | p53 mRNA ([2]; 0 to 48 hours, normalized to GAPDH): remained constant | p21 mRNA increase ([2]; 48 hours, normalized to GAPDH): about 20 fold | ODC activity [3, 9]: 30 pmol/hr/mg protein | ODC activity [3, 10]: 5 pmol/hr/mg protein | Enzyme Activities, ODC [3, 11]: 37 pmol/hr/mg protein | % Growth Control [4, 12]: 26% | % Control Growth [4, 11]: 30% | cell growth and/or apoptosis response ([4]; SK-MEL-28 cells, growth kinetic analysis): massive and rapid apoptotic response; also recorded: rapid cytotoxic response | % Total Cells at 48 hours, G1 ([5]; MALME-3M (wt-p53), asynchronous, 10 μM, 48 hours): 88% | cell cycle distribution of serum synchronized cells ([5]; MALME-3M synchronized in G0/G1, released with serum plus 10 μM, up to 96 hours): accumulated in the G1 and G2/M phases of the cycle but not in S phase | onset of G1 arrest after treatment ([5]; MALME-3M, asynchronous, 10 μM): about 16 hours | Polyamine Pools, Put [6, 12]: 70 pmol/10^6 cells | Polyamine Pools, Spd [6, 12]: 20 pmol/10^6 cells | Polyamine Pools, Spm [6, 12]: 105 pmol/10^6 cells | decrease in spermine pools ([6]; SK-MEL-28 cells, 24 hours): 95% | Analog (intracellular accumulation) [6, 11]: 7710 pmol/10^6 cells | Polyamine Pools, Put [6, 11]: 115 pmol/10^6 cells | Polyamine Pools, Spd [6, 11]: 45 pmol/10^6 cells | Polyamine Pools, Spm [6, 11]: 190 pmol/10^6 cells | SSAT activity [7]: 31,920 pmol/min/mg | Enzyme Activities, SSAT ([7]; Table 4): 31920 pmol/min/mg protein | SAMDC activity [8, 9]: 40 pmol/hr/mg protein | SAMDC activity [8, 10]: 25 pmol/hr/mg protein
